Data: paper PMC11876601 (Molecular Systems Biology, 2025)
Where “and” joins values, the source holds several entries; their conditions need not be identical. Equal entries are not always repeated. Where two headings read alike, the source gives them in different places.

Columns and labels:
PANC-1 cells = assay: Cell proliferation assay, GEM + ATR inhibitor (Incucyte confluence, 72 h); conditions: for EC50: Homo sapiens, mean of replicates; for Curve bottom / Curve top: PANC-1, plateau of fitted curve, ratio drug/vehicle confluence;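 on EC50: in combination experiments GEM is titrated while ATRi is held at a fixed sub-EC50 dose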;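 on all read-outs here: PANC-1 confluence at 72 h taken as raw values, not normalized to starting confluence, with each experiment run in triplicate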
Protocol: (§1) Cells were seeded at 5000 cells/well into 96-well flat bottom plates (Eppendorf) and allowed to attach overnight. […] Cells were incubated for 72 h at 37 °C and 5% CO2. Cell confluence readouts at 72 h were either normalized to their initial confluence using the Incucyte software (AsPC-1) or used without prior normalization (all others). […] Each experiment was performed in triplicates, the data was plotted as mean ± standard deviation (s.d.).

AsPC-1 cells = assay: Cell proliferation assay, chemodrug + ATR inhibitor (Incucyte confluence, 72 h); conditions: for Curve slope / Curve bottom / Curve top: AsPC1, fitted dose-response curve; for Curve bottom / Curve top: relative response; for AsPC-1 viability (ratio) / AsPC-1 viability mean (ratio) / Raw data (confluence at 72 h/confluence at 0 h): Gartisertib experiment;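 on all read-outs here: underlying read-out for every value is AsPC-1 confluence after 72 h incubation at 37 °C and 5% CO2, divided by that well's starting confluence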
Protocol: as §1

[1] = Experiment ATRi (ATR inhibitor alone)
[2] = replicate R1, titrated drug dose 3 nM
[3] = replicate R1, titrated drug dose 10 nM
[4] = replicate R1, titrated drug dose 30 nM
[5] = replicate R1, titrated drug dose 100 nM
[6] = replicate R1, titrated drug dose 300 nM
[7] = replicate R1, titrated drug dose 1000 nM
[8] = replicate R1, titrated drug dose 3000 nM
[9] = replicate R1, titrated drug dose 10000 nM
[10] = replicate R2, titrated drug dose 3 nM
[11] = replicate R2, titrated drug dose 10 nM

Nc1nn2cc(F)cnc2c1C(=O)Nc1cncc(F)c1N1CCC(C(=O)N2CCN(C3COC3)CC2)CC1 [Gartisertib]
EC50 (PANC-1 cells; PANC-1, 72 h, read-out: EC50 mean [nM], PANC-1, experiment ATRi (ATR inhibitor alone)): 7880 nM
EC50 (PANC-1 cells; PANC-1, read-out: EC50 mean [nM], PANC-1, experiment ATRi (ATR inhibitor alone)): 7880 nM
EC50 (PANC-1 cells; PANC-1, read-out: EC50 mean [nM], PANC-1, experiment GEM+ATRi_dose1): 4.13 nM
EC50 (PANC-1 cells; PANC-1, read-out: EC50 mean [nM], PANC-1, experiment GEM+ATRi_dose2): 8.99 nM
EC50 (PANC-1 cells; PANC-1, read-out: EC50 mean [nM], PANC-1, experiment GEM+ATRi_dose3): 6.69 nM
Curve bottom (PANC-1 cells; experiment ATRi (ATR inhibitor alone)): 1.03 and 0.99 and 0.93
Curve top (PANC-1 cells; experiment GEM+ATRi_dose1): 0.48 and 0.43 and 0.49
Curve top (PANC-1 cells; experiment GEM+ATRi_dose2): 0.47 and 0.43 and 0.52
Curve bottom (PANC-1 cells; experiment GEM+ATRi_dose3): 0.95 and 0.86 and 1.00
Curve top (PANC-1 cells; experiment GEM+ATRi_dose3): 0.47 and 0.45 and 0.50
Curve slope (AsPC-1 cells; [1]): 1.84 and 2.11 and 1.85
Curve bottom (AsPC-1 cells; [1]): 0.97 and 0.99 and 1.02
Curve top (AsPC-1 cells; [1]): 0.32 and 0.29 and 0.28
Curve slope (AsPC-1 cells; Experiment GEM+ATRi_dose1): 1.70 and 3.25 and 2.63
Curve bottom (AsPC-1 cells; Experiment GEM+ATRi_dose1): 0.97 and 0.89 and 0.93
Curve top (AsPC-1 cells; Experiment GEM+ATRi_dose1): 0.47 and 0.39
Curve slope (AsPC-1 cells; Experiment GEM+ATRi_dose2): 1.86 and 2.66 and 1.99
Curve bottom (AsPC-1 cells; Experiment GEM+ATRi_dose2): 1.01 and 0.93 and 0.97
Curve top (AsPC-1 cells; Experiment GEM+ATRi_dose2): 0.45 and 0.36
Curve bottom (AsPC-1 cells; Experiment GEM+ATRi_dose3): 0.93 and 0.90 and 0.88
Curve top (AsPC-1 cells; Experiment GEM+ATRi_dose3): 0.47 and 0.36
Response (AsPC-1 cells; GEM 0 nM, ATRi 3 nM): 2.96 and 3.43 and 3.57
Response (AsPC-1 cells; GEM 0 nM, ATRi 10 nM): 3.28 and 3.77 and 3.92
Response (AsPC-1 cells; GEM 0 nM, ATRi 30 nM): 3.05 and 3.68
Response (AsPC-1 cells; GEM 1 nM + ATRi 3 nM): 3.14 and 3.82 and 3.86
Response (AsPC-1 cells; GEM 1 nM + ATRi 10 nM): 3.23 and 3.93 and 3.90
Response (AsPC-1 cells; GEM 1 nM + ATRi 30 nM): 2.84 and 3.74
Response (AsPC-1 cells; GEM 3 nM + ATRi 3 nM): 3.14 and 3.83 and 3.74
Response (AsPC-1 cells; GEM 3 nM + ATRi 10 nM): 3.01 and 3.70 and 3.66
Response (AsPC-1 cells; GEM 3 nM + ATRi 30 nM): 3.03 and 3.39
Response (AsPC-1 cells; GEM 10 nM + ATRi 3 nM): 2.77 and 3.58 and 3.45
Response (AsPC-1 cells; GEM 10 nM + ATRi 10 nM): 2.54 and 2.78 and 2.71
Response (AsPC-1 cells; GEM 10 nM + ATRi 30 nM): 1.88 and 1.90 and 1.98
Response (AsPC-1 cells; GEM 30 nM + ATRi 3 nM): 2.10 and 2.28 and 2.14
Response (AsPC-1 cells; GEM 30 nM + ATRi 10 nM): 1.63 and 1.61 and 1.64
Response (AsPC-1 cells; GEM 30 nM + ATRi 30 nM): 1.75 and 1.65 and 1.57
Response (AsPC-1 cells; GEM 100 nM + ATRi 3 nM): 1.68 and 1.66 and 1.64
Response (AsPC-1 cells; GEM 100 nM + ATRi 10 nM): 1.57 and 1.53 and 1.56
Response (AsPC-1 cells; GEM 100 nM + ATRi 30 nM): 1.53 and 1.59 and 1.47
Response (AsPC-1 cells; GEM 300 nM + ATRi 3 nM): 1.57 and 1.60 and 1.54
Response (AsPC-1 cells; GEM 300 nM + ATRi 10 nM): 1.52 and 1.50
Response (AsPC-1 cells; GEM 300 nM + ATRi 30 nM): 1.48 and 1.44 and 1.43
Response (AsPC-1 cells; GEM 1000 nM + ATRi 3 nM): 1.57 and 1.62
Response (AsPC-1 cells; GEM 1000 nM + ATRi 10 nM): 1.40 and 1.55 and 1.43
Response (AsPC-1 cells; GEM 1000 nM + ATRi 30 nM): 1.36 and 1.45 and 1.40
Response (AsPC-1 cells; GEM 3000 nM + ATRi 3 nM): 1.36 and 1.58 and 1.49
Response (AsPC-1 cells; GEM 3000 nM + ATRi 10 nM): 1.38 and 1.44 and 1.37
Response (AsPC-1 cells; GEM 3000 nM + ATRi 30 nM): 1.32 and 1.42 and 1.36
AsPC-1 viability (ratio) (AsPC-1 cells; [2]): 0.9 ratio
AsPC-1 viability mean (ratio) (AsPC-1 cells; [2]): 0.59 ratio
Raw data (confluence at 72 h/confluence at 0 h) (AsPC-1 cells; [2]): 2.89
AsPC-1 viability (ratio) (AsPC-1 cells; [3]): 1.01 ratio
AsPC-1 viability mean (ratio) (AsPC-1 cells; [3]): 0.99 ratio
Raw data (confluence at 72 h/confluence at 0 h) (AsPC-1 cells; [3]): 3.24
AsPC-1 viability (ratio) (AsPC-1 cells; [4]): 0.95 ratio
AsPC-1 viability mean (ratio) (AsPC-1 cells; [4]): 0.48 ratio
Raw data (confluence at 72 h/confluence at 0 h) (AsPC-1 cells; [4]): 3.04
AsPC-1 viability (ratio) (AsPC-1 cells; [5]): 0.63 ratio
AsPC-1 viability mean (ratio) (AsPC-1 cells; [5]): 0.45 ratio
Raw data (confluence at 72 h/confluence at 0 h) (AsPC-1 cells; [5]): 2.03
AsPC-1 viability (ratio) (AsPC-1 cells; [6]): 0.44 ratio
AsPC-1 viability mean (ratio) (AsPC-1 cells; [6]): 0.4 ratio
Raw data (confluence at 72 h/confluence at 0 h) (AsPC-1 cells; [6]): 1.4
AsPC-1 viability (ratio) (AsPC-1 cells; [7]): 0.37 ratio
AsPC-1 viability mean (ratio) (AsPC-1 cells; [7]): 0.54 ratio
Raw data (confluence at 72 h/confluence at 0 h) (AsPC-1 cells; [7]): 1.19
AsPC-1 viability (ratio) (AsPC-1 cells; [8]): 0.33 ratio
AsPC-1 viability mean (ratio) (AsPC-1 cells; [8]): 0.49 ratio
Raw data (confluence at 72 h/confluence at 0 h) (AsPC-1 cells; [8]): 1.04
AsPC-1 viability (ratio) (AsPC-1 cells; [9]): 0.27 ratio
AsPC-1 viability mean (ratio) (AsPC-1 cells; [9]): 0.45 ratio
Raw data (confluence at 72 h/confluence at 0 h) (AsPC-1 cells; [9]): 0.87
AsPC-1 viability (ratio) (AsPC-1 cells; [10]): 1.01 ratio
AsPC-1 viability mean (ratio) (AsPC-1 cells; [10]): 0.6 ratio
Raw data (confluence at 72 h/confluence at 0 h) (AsPC-1 cells; [10]): 4.15
AsPC-1 viability (ratio) (AsPC-1 cells; [11]): 1 ratio
AsPC-1 viability mean (ratio) (AsPC-1 cells; [11]): 1.08 ratio
Raw data (confluence at 72 h/confluence at 0 h) (AsPC-1 cells; [11]): 4.13
